Reference: patent US10851082B2, “Substituted aromatic n-heterocyclic compounds as inhibitors of mitogen-activated protein kinase interacting kinase 1 (MNK1) and 2 (MNK2)” (Northwestern University, priority 2015, dated 2020)
pIC50: −log10 of the molar value. Like-named read-outs stand apart in the source and are kept apart here. One block for each molecule: values may come before it.

Experiments:
Mnk1 = Mnk1 (Homo sapiens (Human), UniProt Q9BUB5); test: Mnk1 kinase inhibition, ADP-Glo ADP monitoring assay; assay type: biochemical
Procedure: (§1) The synthesized compounds then were tested for inhibition of the kinase activity (IC50) of Mnk1 and/or Mnk2 using the ADP monitoring assay for kinases described in Zegzouti, H.; Zdanovskaia, M.; Hsiao, K.; Goueli, S. A., ADP-Glo: A Bioluminescent and homogeneous ADP monitoring assay for kinases.

Mnk2 = Mnk2 (Homo sapiens (Human), UniProt Q9HBH9); test: Mnk2 kinase inhibition, ADP-Glo ADP monitoring assay; assay type: biochemical
Procedure: as §1

[1] = ADP-Glo kinase assay, read-out: Mnk2 IC50
[2] = read-out: Mnk1 inhibition IC50 (+,++,+++)
[3] = ADP-Glo kinase assay, read-out: Mnk2 inhibition IC50 (+,++,+++)
[4] = unit inferred, read-out: Mnk1 IC50
[5] = ADP-Glo kinase assay, unit inferred, read-out: Mnk2 IC50

Mnk1, sequence (Q9BUB5 whole entry): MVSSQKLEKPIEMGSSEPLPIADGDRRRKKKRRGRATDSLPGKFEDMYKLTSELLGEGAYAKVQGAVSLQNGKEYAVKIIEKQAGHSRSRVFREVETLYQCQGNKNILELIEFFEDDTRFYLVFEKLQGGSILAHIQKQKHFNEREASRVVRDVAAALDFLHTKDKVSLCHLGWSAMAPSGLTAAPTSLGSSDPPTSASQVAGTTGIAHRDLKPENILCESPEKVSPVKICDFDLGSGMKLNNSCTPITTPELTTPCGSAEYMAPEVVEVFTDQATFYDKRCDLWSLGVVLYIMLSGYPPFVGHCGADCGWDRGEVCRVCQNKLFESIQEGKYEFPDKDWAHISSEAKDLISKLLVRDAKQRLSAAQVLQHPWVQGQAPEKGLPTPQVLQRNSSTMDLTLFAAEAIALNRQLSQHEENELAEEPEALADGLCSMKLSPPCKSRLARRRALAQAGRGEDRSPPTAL
Mnk2, sequence (Q9HBH9 whole entry): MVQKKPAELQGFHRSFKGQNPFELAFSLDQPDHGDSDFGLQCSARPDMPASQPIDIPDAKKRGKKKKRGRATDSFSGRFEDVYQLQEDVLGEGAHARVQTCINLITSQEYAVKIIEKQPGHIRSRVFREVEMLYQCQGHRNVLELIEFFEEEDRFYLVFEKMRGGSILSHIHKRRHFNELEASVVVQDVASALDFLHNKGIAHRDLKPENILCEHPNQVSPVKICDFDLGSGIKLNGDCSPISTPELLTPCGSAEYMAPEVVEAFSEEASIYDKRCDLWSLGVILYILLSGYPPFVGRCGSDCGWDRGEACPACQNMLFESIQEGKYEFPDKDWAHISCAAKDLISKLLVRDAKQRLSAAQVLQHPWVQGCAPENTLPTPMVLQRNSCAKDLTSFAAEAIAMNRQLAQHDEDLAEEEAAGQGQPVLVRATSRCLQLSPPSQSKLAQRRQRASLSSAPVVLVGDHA

SMILES: NC1CC(Oc2ncc(Cl)c(-n3cnc(-c4ccc(Cl)c(C(F)(F)F)c4)c3)n2)C1 (stereo not shown) [NUCC-0201247, 3-((5-chloro-4-(4-(4-chloro-3-(trifluoromethyl)phenyl)-1H-imidazol-1-yl)pyrimidin-2-yl)oxy)cyclobutanamine]
- pIC50 (Mnk1; [2]): 5.00 to 6.00
- pIC50 (Mnk2): 5.00 to 6.00

SMILES: N#Cc1cnc(OCCN2CCOCC2)nc1-n1cnc2ccccc21 [NUCC-0200791]
- pIC50 (Mnk1; [2]): 5.00 to 6.00
- pIC50 (Mnk2; [3]): > 6.00

SMILES: NC1CC(Oc2ncc(Br)c(-n3cnc4ccccc43)n2)C1 (stereo not shown) [NUCC-0201893]
- pIC50 (Mnk1; [2]): > 6.00
- pIC50 (Mnk2; [3]): > 6.00

SMILES: Fc1ccc2c(ncn2-c2nc(NCCc3ccncc3)ncc2Cl)c1F [NUCC-0200800]
- Mnk1 inhibition IC50 (+,++,+++) (Mnk1): no activity
- Mnk2 inhibition IC50 (+,++,+++) (Mnk2; ADP-Glo kinase assay): no activity

SMILES: N#Cc1cnc(OCCc2cccnc2)nc1-n1cnc2ccccc21 [NUCC-0201005]
- pIC50 (Mnk1; [2]): 5.00 to 6.00
- pIC50 (Mnk2): 5.00 to 6.00

SMILES: CCOC(=O)c1cnc(NC2CNC(=O)C2)nc1-n1cnc2ccccc21 (stereo not shown) [NUCC-0201889]
- pIC50 (Mnk1; [2]): 5.00 to 6.00
- pIC50 (Mnk2): 5.00 to 6.00

SMILES: COC1CCC(Nc2nccc(-n3cnc4ccccc43)n2)CC1 (stereo not shown) [NUCC-0176153]
- pIC50 (Mnk1; read-out: Mnk1 IC50): 6.32
- pIC50 (Mnk2; [1]): 7.09

SMILES: c1cnc2ncn(-c3ccnc(NC4CCOC4)n3)c2c1 (stereo not shown) [NUCC-0176142]
- pIC50 (Mnk1; read-out: Mnk1 IC50): 4.89
- pIC50 (Mnk2; [1]): 5.28

SMILES: Clc1cnc(OC2CCC2)nc1-n1cnc2ccccc21 [NUCC-0201048]
- pIC50 (Mnk1; [2]): > 6.00
- pIC50 (Mnk2; [3]): > 6.00

SMILES: O[C@@H](c1ccccc1)[C@H](Nc1ccnc(-n2cnc3ccccc32)n1)c1ccccc1 [NUCC-0196258]
- pIC50 (Mnk1; [4]): < 5.00
- pIC50 (Mnk2; [5]): 5.15

SMILES: COCCNc1nccc(-n2cnc3ccccc32)n1 [NUCC-0176342]
- pIC50 (Mnk1; read-out: Mnk1 IC50): 5.80
- pIC50 (Mnk2; [1]): 6.70

SMILES: COC1CCC(Nc2nccc(-n3cnc4ccccc43)n2)CC1 (stereo not shown) [NUCC-0176167]
- pIC50 (Mnk1; read-out: Mnk1 IC50): 6.52
- pIC50 (Mnk2; [1]): 7.22

SMILES: Clc1cc(Cl)nc(CCOc2ncc(Cl)c(-n3cnc4ccccc43)n2)c1 [NUCC-0201022]
- pIC50 (Mnk1; [2]): 5.00 to 6.00
- pIC50 (Mnk2): 5.00 to 6.00

SMILES: Fc1cc(CCOc2ncc(Cl)c(-n3cnc4ccccc43)n2)ccn1 [NUCC-0201046, 1-(5-chloro-2-(2-(2-fluoropyridin-4-yl)ethoxy)pyrimidin-4-yl)-1H-benzo[d]imidazole]
- pIC50 (Mnk1; [2]): > 6.00
- pIC50 (Mnk2; [3]): > 6.00

SMILES: Brc1cnc(NCCc2ccncc2)nc1-n1cnc2ccccc21 [NUCC-0196228]
- pIC50 (Mnk1; [4]): 6.26
- pIC50 (Mnk2; [5]): 7.16

SMILES: c1ccc2c(c1)ncn2-c1ccnc(NC2CCCOC2)n1 (stereo not shown) [NUCC-0176151]
- pIC50 (Mnk1; read-out: Mnk1 IC50): 6.41
- pIC50 (Mnk2; [1]): 7.36

SMILES: COC(=O)CNc1ncc(Cl)c(-n2cnc3ccccc32)n1 [NUCC-0176356]
- pIC50 (Mnk1; read-out: Mnk1 IC50): 4.96
- pIC50 (Mnk2; [1]): 5.85

SMILES: c1ccc2c(c1)CCN2c1ccnc(N[C@H]2CCOC2)n1 [NUCC-0176231]
- pIC50 (Mnk1; read-out: Mnk1 IC50): 5.96
- pIC50 (Mnk2; [1]): 6.42

SMILES: c1ccc2c(c1)CCN2c1ccnc(N[C@@H]2CCOC2)n1 [NUCC-0176232]
- pIC50 (Mnk1; read-out: Mnk1 IC50): 5.34
- pIC50 (Mnk2; [1]): 5.64

SMILES: COC(=O)c1cc(-n2cnc3ccccc32)nc(NCCc2ccncc2)n1 [NUCC-0196230]
- pIC50 (Mnk1; [4]): < 5.00
- pIC50 (Mnk2; [5]): < 5.00

SMILES: c1cc(NCCc2ccncc2)nc(-n2cnc3ccccc32)c1 [NUCC-0196235]
- pIC50 (Mnk1; [4]): 7.00
- pIC50 (Mnk2; [5]): 8.00

SMILES: O=C(O)C1CC(Oc2ncc(Cl)c(-n3cnc4ccccc43)n2)C1 (stereo not shown) [NUCC-0201891]
- pIC50 (Mnk1; [2]): 5.00 to 6.00
- pIC50 (Mnk2; [3]): > 6.00

The remaining lines, values ahead:

- Mnk1 IC50 (Mnk1): no activity
- Mnk2 IC50 (Mnk2; ADP-Glo kinase assay): no activity
SMILES: O=c1c2ccccc2nnn1-c1ccnc(NCCc2ccncc2)n1 [NUCC-0176350]

- pIC50 (Mnk1; read-out: Mnk1 IC50): 5.59
- pIC50 (Mnk2; [1]): 6.30
SMILES: O=C1NCCCCC1Nc1nccc(-n2cnc3ccccc32)n1 (stereo not shown) [NUCC-0176367]

- pIC50 (Mnk1; [2]): 5.00 to 6.00
- pIC50 (Mnk2; [3]): > 6.00
SMILES: CC(C)(COc1ncc(Cl)c(-n2cnc3ccccc32)n1)c1ccncc1 [NUCC-0201593, 1-(5-chloro-2-(2-methyl-2-(pyridin-4-yl)propoxy)pyrimidin-4-yl)-1H-benzo[d]imidazole]

- Mnk1 IC50 (Mnk1): no activity
- Mnk2 IC50 (Mnk2; ADP-Glo kinase assay): no activity
SMILES: O=C(O)CNc1ncc(Cl)c(-n2cnc3ccccc32)n1 [NUCC-0176361]

- pIC50 (Mnk1; [4]): < 5.00
- pIC50 (Mnk2; [5]): 5.16
SMILES: O=C(O)c1cc(-n2cnc3ccccc32)nc(NCCc2ccncc2)n1 [NUCC-0196239]

- pIC50 (Mnk1; [2]): 5.00 to 6.00
- pIC50 (Mnk2): 5.00 to 6.00
SMILES: CC(C)(COc1ncc(Cl)c(OCC(C)(C)c2ccnc(F)c2)n1)c1ccnc(F)c1 [NUCC-0201919]

- pIC50 (Mnk1; [2]): > 6.00
- pIC50 (Mnk2; [3]): > 6.00
SMILES: Clc1cnc(OC2CCOCC2)nc1-n1cnc2ccccc21 [NUCC-0200804]

- pIC50 (Mnk1; [2]): > 6.00
- pIC50 (Mnk2; [3]): > 6.00
SMILES: N#Cc1cnc(NC2CNC(=O)C2)nc1-n1cnc2ccccc21 (stereo not shown) [NUCC-0201905]

- pIC50 (Mnk1; [2]): 5.00 to 6.00
- pIC50 (Mnk2): 5.00 to 6.00
SMILES: CCc1nc(OC2CC(N)C2)nc(-n2cnc3ccccc32)c1Cl (stereo not shown) [NUCC-0201916]

- pIC50 (Mnk1; [2]): 5.00 to 6.00
- pIC50 (Mnk2): 5.00 to 6.00
SMILES: CC(C)(COc1nc(-n2cnc3ccccc32)ncc1C#N)c1ccnc(F)c1 [NUCC-0201908]

- pIC50 (Mnk1; [2]): > 6.00
- pIC50 (Mnk2; [3]): > 6.00
SMILES: CC(C)(COc1ncc(Cl)c(-n2cnc3ccccc32)n1)c1ccnc(F)c1 [NUCC-0201914]

- pIC50 (Mnk1; [4]): 7.02
- pIC50 (Mnk2; [5]): 7.24
SMILES: N#Cc1cnc(NCCc2ccncc2)nc1-n1cnc(-c2ccccc2)c1 [NUCC-0196264]

- pIC50 (Mnk1; [2]): < 5.00
- pIC50 (Mnk2): 5.00 to 6.00
SMILES: O=[N+](O)c1ccc2c(c1)ncn2-c1nc(NCCc2ccncc2)ncc1Cl [NUCC-0200798]
